The values below come from PubChem BioAssay (NCI).

Molecules are shown by their SMILES.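 Dose response: 5 concentrations. Exposure: 48 h. Format: 96-well plates. Endpoint: linear interpolation; highest concentration if not reached. GI50 is the concentration that inhibits growth by half. TGI is the concentration that stops growth completely.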 Where only a bound is given, the exact number is not on record here.

Test systems include HCC-2998 colon; UACC-257 melanoma; K-562 leukemia; HOP-62 NSCLC; MDA-MB-435; NCI-H226 lung; SK-MEL-5 melanoma; A498 renal; SF-295 CNS; HT29 colon.
What all share (experiment): NCI-60 cell line screen, 48 h

On to `COC(=O)c1ccc(C2SCC(=O)N2NC(=O)C(O)c2ccccc2)cc1` (centres undefined), for which the GI50 with HCC-2998 colon, in the experiment on UACC-257 melanoma, in the experiment on K-562 leukemia, in the experiment with HOP-62 NSCLC, in the experiment with MDA-MB-435 and in the experiment with NCI-H226 lung was over 100 µM in each case. Moreover, the GI50 in the experiment with SK-MEL-5 melanoma, in the experiment on A498 renal, in the experiment on SF-295 CNS and in the experiment with HT29 colon was over 100 µM each time. For the same molecule, the TGI in the experiment with HCC-2998 colon, in the experiment with UACC-257 melanoma, in the experiment on K-562 leukemia, in the experiment on HOP-62 NSCLC, in the experiment on MDA-MB-435 and with NCI-H226 lung was over 100 µM throughout. Besides, the TGI with SK-MEL-5 melanoma, with A498 renal, in the experiment with SF-295 CNS and with HT29 colon was over 100 µM throughout.
As for `COc1cc(NC(N)=NCCC(C)(C)c2ccc(C(F)(F)F)cc2)ncc1C#N`, the GI50 with HCC-2998 colon was 1.89 µM; with UACC-257 melanoma, 1.77 µM; in the experiment on K-562 leukemia, 1.42 µM; with HOP-62 NSCLC it was 1.78 µM; in the experiment with MDA-MB-435, 1.78 µM; in the experiment with NCI-H226 lung, 1.6 µM. Besides, the GI50 in the experiment with SK-MEL-5 melanoma was 1.58 µM; in the experiment on A498 renal, 1.88 µM; in the experiment on SF-295 CNS, 1.6 µM; with HT29 colon it was 1.62 µM. Besides, the TGI in the experiment on HCC-2998 colon came to 3.34 µM; in the experiment on UACC-257 melanoma, 3.32 µM; in the experiment on K-562 leukemia, 5.02 µM; in the experiment with HOP-62 NSCLC, 3.25 µM; in the experiment on MDA-MB-435, 3.25 µM; in the experiment on NCI-H226 lung it was 3.36 µM. For the same molecule, the TGI in the experiment with SK-MEL-5 melanoma amounted to 2.94 µM; with A498 renal, 3.69 µM; with SF-295 CNS, 3.06 µM; with HT29 colon it was 3.14 µM.
With `O=C(Nc1ccc(Br)cc1F)c1cc(Br)ccc1O`, the GI50 in the experiment with HCC-2998 colon is 2.87 µM; in the experiment on UACC-257 melanoma, 0.829 µM; in the experiment on K-562 leukemia it was 0.453 µM; with HOP-62 NSCLC it was 1.45 µM; in the experiment with MDA-MB-435, 0.846 µM; with NCI-H226 lung it was 0.688 µM. Besides, the GI50 in the experiment on SK-MEL-5 melanoma was 0.289 µM; with A498 renal, 0.246 µM; in the experiment with SF-295 CNS, 1.58 µM; in the experiment with HT29 colon, 3.08 µM. Further, the TGI in the experiment with HCC-2998 colon was 10.8 µM; in the experiment with UACC-257 melanoma it was 5.34 µM; in the experiment with K-562 leukemia, over 35.9 µM; in the experiment with HOP-62 NSCLC, 6.36 µM; in the experiment with MDA-MB-435 it was 5.63 µM; in the experiment with NCI-H226 lung, 7.76 µM. The TGI in the experiment with SK-MEL-5 melanoma was 1.19 µM; with A498 renal, 1.12 µM; in the experiment with SF-295 CNS, 3.56 µM; with HT29 colon, 9.71 µM.
As to `N=c1ccn2c(n1)O[C@@H]1[C@@H](O)[C@H](CO)O[C@@H]12`, the GI50 with HCC-2998 colon is 21.2 µM; in the experiment on UACC-257 melanoma, 35 µM; in the experiment on K-562 leukemia, over 100 µM; with HOP-62 NSCLC, 0.783 µM; in the experiment with MDA-MB-435, 4.13 µM; in the experiment with NCI-H226 lung, 3.52 µM. For the same molecule, the GI50 with SK-MEL-5 melanoma was 15.5 µM; in the experiment with A498 renal, over 100 µM; in the experiment with SF-295 CNS it was 16.2 µM; in the experiment with HT29 colon, 17 µM. For the same molecule, the TGI in the experiment with HCC-2998 colon was over 100 µM; in the experiment with UACC-257 melanoma, over 100 µM; with K-562 leukemia, over 100 µM; in the experiment with HOP-62 NSCLC, 23 µM; in the experiment with MDA-MB-435, over 100 µM; with NCI-H226 lung it was over 100 µM. Also, the TGI with SK-MEL-5 melanoma, in the experiment on A498 renal, in the experiment on SF-295 CNS and in the experiment on HT29 colon was over 100 µM each time.
As to `O=C1c2cccnc2C(=O)c2c1c(C(=O)OCCN1CCOCC1)c1ccccn21`, the GI50 in the experiment with HCC-2998 colon was 0.252 µM; in the experiment with UACC-257 melanoma, 0.0354 µM; in the experiment with K-562 leukemia, 0.0198 µM; with HOP-62 NSCLC, under 0.01 µM; in the experiment with MDA-MB-435, 0.0387 µM; with NCI-H226 lung it was under 0.017 µM. The GI50 is 0.0189 µM with SK-MEL-5 melanoma, 0.0236 µM in the experiment with A498 renal, 0.0197 µM with SF-295 CNS and 0.316 µM in the experiment on HT29 colon. Moreover, the TGI was 5.4 µM with HCC-2998 colon; 0.592 µM in the experiment on UACC-257 melanoma; under 0.0142 µM in the experiment on HOP-62 NSCLC; 0.65 µM in the experiment on MDA-MB-435; 0.696 µM with NCI-H226 lung; 0.135 µM in the experiment with SK-MEL-5 melanoma. In addition, the TGI stood at 1.65 µM in the experiment with A498 renal, 1.05 µM in the experiment with SF-295 CNS and 2.31 µM with HT29 colon.
Turning to `Cn1c(=S)sc2nc3ccccc3n2c1=S`, the TGI with HCC-2998 colon was determined as 35.2 µM; with UACC-257 melanoma, 28.4 µM; in the experiment with K-562 leukemia, 21.5 µM; in the experiment with HOP-62 NSCLC it was 35.2 µM; in the experiment with MDA-MB-435, 35.5 µM; in the experiment with NCI-H226 lung, 58.7 µM. Besides, the TGI is 27 µM in the experiment on SK-MEL-5 melanoma, 46.9 µM in the experiment with A498 renal, 50.6 µM in the experiment on SF-295 CNS and 25.8 µM in the experiment on HT29 colon.
As to `C[C@@]1(N2C(=O)OC[C@@H]2c2ccccc2)C(=O)N([C@H](CC(=O)N2CCC(N3CCCCC3)CC2)C(=O)NCc2cccc(C(F)(F)F)c2)[C@@H]1/C=C/c1ccccc1`, the GI50 in the experiment on HCC-2998 colon was 1.98 µM; with UACC-257 melanoma it was 2.09 µM; in the experiment with K-562 leukemia it was 2.07 µM; with HOP-62 NSCLC, 2.03 µM; in the experiment on MDA-MB-435, 1.74 µM; in the experiment on NCI-H226 lung, 22.5 µM. For the same molecule, the GI50 with SK-MEL-5 melanoma was 1.81 µM; with A498 renal it was 1.88 µM; in the experiment on SF-295 CNS, 1.73 µM; in the experiment with HT29 colon, 2.31 µM. Further, the TGI with HCC-2998 colon worked out at 3.79 µM; in the experiment on UACC-257 melanoma it was 3.97 µM; in the experiment with K-562 leukemia it was 4.82 µM; in the experiment on HOP-62 NSCLC it was 5.76 µM; with MDA-MB-435, 3.26 µM; in the experiment on NCI-H226 lung, 39.7 µM. Further, the TGI in the experiment with SK-MEL-5 melanoma came out at 3.21 µM; in the experiment with A498 renal it was 5.98 µM; with SF-295 CNS, 3.42 µM; with HT29 colon it was 5.7 µM.
For `Nc1nc2c(c3cnccc13)C(c1cccc(Cl)c1)Cc1cnccc1-2` (centres undefined), the GI50 in the experiment with HCC-2998 colon is 1.29 µM; with UACC-257 melanoma it was 4.36 µM; in the experiment with K-562 leukemia, 0.338 µM; in the experiment on HOP-62 NSCLC, 0.441 µM; with MDA-MB-435, 0.21 µM; with NCI-H226 lung, 0.673 µM. The GI50 in the experiment with SK-MEL-5 melanoma is 0.398 µM; in the experiment with A498 renal, 0.275 µM; in the experiment on SF-295 CNS it was 0.273 µM; with HT29 colon, 0.336 µM. Moreover, the TGI with HCC-2998 colon came to 12.8 µM; in the experiment with UACC-257 melanoma, 22.5 µM; with K-562 leukemia it was 28.7 µM; in the experiment on HOP-62 NSCLC it was 16.3 µM; in the experiment on MDA-MB-435, 1.46 µM; in the experiment with NCI-H226 lung, 14.7 µM. Besides, the TGI in the experiment with SK-MEL-5 melanoma was determined as 2.04 µM; with A498 renal it was 0.852 µM; with SF-295 CNS, 0.914 µM; with HT29 colon, 2.56 µM.
